Measured values from patent US9826759B2, “Avenanthramide-enriched oat product” (THE QUAKER OATS COMPANY, priority 2014, dated 2017).

How the values were obtained:
[1] = Oxygen Radical Absorbance Capacity (ORAC) assay, antioxidant activity; format: biochemical; conditions: individual avenanthramides
Description: To test the effect of varying avenanthramide ratios on antioxidant activity and inflammation in vitro, the inventors created an avenanthramide ingredient from pure avenanthramides which had similar ratios of avenanthramides 2c:2p:2f as was present in each of the three different oat fractions: hulls, flour, and trichomes. Thereafter, antioxidant activity was measured using the ORAC assay and anti-inflammatory effect was measured using an NF-κB inhibitory assay.
The first avenanthramide ingredient was created from 2c:2p:2f having a ratio of about 1:1:1, which corresponded to the concentration present in oat hulls. The second avenanthramide ingredient had avenanthramides 2c:2p:2f having a ratio of about 1:1:2, which corresponded to the concentration present in oat flour. Finally, the last avenanthramide ingredient tested had 2c:2p:2f in a ratio of about 1:2:2, which corresponded to the concentration present in oat trichomes. An ORAC assay was used to measure the antioxidant activity of each of these avenanthramide ingredients and the results are presented in Table 1.

[2] = Peterson et al., 2001; cited from earlier work

| Compound | ORAC [1] | antioxidant activity in vitro [2] |
| --- | --- | --- |
| O=C(/C=C/c1ccc(O)c(O)c1)Nc1ccc(O)cc1C(=O)O [Avenanthramide 2c, avenanthramide 2c] | 33741.00 A* TE/g | highest antioxidant activity |
| O=C(/C=C/c1ccc(O)cc1)Nc1ccc(O)cc1C(=O)O [Avenanthramide 2p, avenanthramide 2p] | 18504.33 B TE/g | – |
| COc1cc(/C=C/C(=O)Nc2ccc(O)cc2C(=O)O)ccc1O [Avenanthramide 2f, avenanthramide 2f] | 21812.67 B TE/g | – |
